Assay results reported in patent US20240209028A1, “CNP COMPOUNDS” (priority 2022, published 2024).
Values after ≈ are worked out from the molar mass of the structure shown. Where two headings read alike, the source gives them in different places. Starred links: 1 amine or outer side, 2 acyl side, 3 side chain; linkers in the order of their positions; H or OH if unused. Positions of bridges follow the written chain, without caps; N, C: chain ends. Residues, ends and D or L forms follow the SMILES beside them. *: point of attachment. C18 diacid = O=C(O)CCCCCCCCCCCCCCCCC(=O)*; γGlu = O=C(O)[C@H](CCC(=O)[*:2])N[*:1]; AEEA = NCCOCCOCC(=O)O

Assay: Solubility of CNP compounds at pH 4.0 and pH 6.5
Format: physicochemical
Outline: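 Supernatant peptide concentration was quantified by CAD after overnight room-temperature equilibration of incompletely dissolved samples. Nominal loading was ≥4000-5000 nmol/mL. Media were pH 4.0 sodium acetate 5 mM/glycerol 250 mM, or pH 6.5 sodium phosphate 8 mM/glycerol 23 mg/mL reached by stepwise NaOH addition.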

[1] = 8 mM sodium phosphate, 23 mg/mL glycerol, pH 6.5, room temperature, read-out: Solubility at pH 6.5

In the case of `CC[C@H](C)[C@@H]1NC(=O)[C@H](CCCNC(=N)N)NC(=O)[C@H](CC(=O)O)NC(=O)[C@H](CC(C)C)NC(=O)[C@@H]2CCCN2C(=O)[C@H](CC(C)C)NC(=O)CNC(=O)[C@H](Cc2ccccc2)NC(=O)[C@@H](NC(=O)CNC(=O)[C@H](CCC(N)=O)NC(=O)[C@H](CO)NC(=O)[C@H](CC(C)C)NC(=O)CNC(=O)[C@H](CCCCN)NC(=O)[C@H](CCCCN)NC(=O)[C@H](CCC(N)=O)NC(=O)[C@H](C)NC(=O)CNC(=O)[C@H](CCCCN)NC(=O)[C@H](Cc2ccc(O)cc2)NC(=O)[C@H](CCCCN)NC(=O)[C@H](Cc2c[nH]cn2)NC(=O)[C@H](C)NC(=O)[C@H](CCC(N)=O)NC(=O)[C@@H]2CCCN2C(=O)[C@H](Cc2c[nH]cn2)NC(=O)[C@H](CCC(=O)O)NC(=O)[C@H](CCC(N)=O)NC(=O)COCCOCCNC(=O)COCCOCCNC(=O)CC[C@H](NC(=O)CC[C@H](NC(=O)CC[C@H](NC(=O)CCCCCCCCCCCCCCCCC(=O)O)C(=O)O)C(=O)O)C(=O)O)CSSC[C@@H](C(=O)O)NC(=O)CNC(=O)[C@H](CC(C)C)NC(=O)CNC(=O)[C@H](CO)NC(=O)[C@H](CC(C)C)NC(=O)[C@H](CO)NC(=O)CNC1=O` [compound 1382] ({C18 diacid-γGlu-γGlu-γGlu-AEEA-AEEA}-QEHPQAHKYKGAQKKGLSQGCFGLPLDRIGSLSGLGC-OH; disulfide 21-37), the solubility [1] is reported as 3180 µM (≈ 15500 µg/mL).
`CC[C@H](C)[C@@H]1NC(=O)[C@H](CCCNC(=N)N)NC(=O)[C@H](CC(=O)O)NC(=O)[C@H](CC(C)C)NC(=O)[C@@H]2CCCN2C(=O)[C@H](CC(C)C)NC(=O)CNC(=O)[C@H](Cc2ccccc2)NC(=O)[C@@H](NC(=O)CNC(=O)[C@H](CO)NC(=O)[C@H](CO)NC(=O)[C@H](CC(C)C)NC(=O)CNC(=O)[C@H](CCCCN)NC(=O)[C@H](CCCCN)NC(=O)[C@H](CCC(N)=O)NC(=O)[C@H](C)NC(=O)CNC(=O)[C@H](CCCCN)NC(=O)[C@H](Cc2ccc(O)cc2)NC(=O)[C@H](CCCCN)NC(=O)[C@H](CCCNC(=N)N)NC(=O)[C@H](C)NC(=O)CC[C@H](NC(=O)CC[C@H](NC(=O)CC[C@H](NC(=O)CC[C@H](NC(=O)CCCCCCCCCCCCCCCCC(=O)O)C(=O)O)C(=O)O)C(=O)O)C(=O)O)CSSC[C@@H](C(=O)O)NC(=O)CNC(=O)[C@H](CC(C)C)NC(=O)CNC(=O)[C@H](CO)NC(=O)[C@H](CC(C)C)NC(=O)[C@H](CO)NC(=O)CNC1=O` [compound 1386] ({C18 diacid-γGlu-γGlu-γGlu-γGlu}-ARKYKGAQKKGLSSGCFGLPLDRIGSLSGLGC-OH; disulfide 16-32) gave a solubility [1] of 490 µM (≈ 2000 µg/mL).
Molecule `CC[C@H](C)[C@@H]1NC(=O)[C@H](CCCNC(=N)N)NC(=O)[C@H](CC(=O)O)NC(=O)[C@H](CC(C)C)NC(=O)[C@@H]2CCCN2C(=O)[C@H](CC(C)C)NC(=O)CNC(=O)[C@H](Cc2ccccc2)NC(=O)[C@@H](NC(=O)CNC(=O)[C@H](CO)NC(=O)[C@H](CO)NC(=O)[C@H](CC(C)C)NC(=O)CNC(=O)[C@H](CCCCN)NC(=O)[C@H](CCCCN)NC(=O)[C@H](CCC(N)=O)NC(=O)[C@H](C)NC(=O)CNC(=O)[C@H](CCCCN)NC(=O)[C@H](Cc2ccc(O)cc2)NC(=O)[C@H](CCCCN)NC(=O)[C@H](CCCNC(=N)N)NC(=O)[C@H](C)NC(=O)[C@H](CCC(N)=O)NC(=O)[C@@H]2CCCN2C(=O)[C@H](Cc2c[nH]cn2)NC(=O)[C@H](CCC(=O)O)NC(=O)[C@H](CCC(N)=O)NC(=O)CC[C@H](NC(=O)CC[C@H](NC(=O)CC[C@H](NC(=O)CC[C@H](NC(=O)CCCCCCCCCCCCCCCCC(=O)O)C(=O)O)C(=O)O)C(=O)O)C(=O)O)CSSC[C@@H](C(=O)O)NC(=O)CNC(=O)[C@H](CC(C)C)NC(=O)CNC(=O)[C@H](CO)NC(=O)[C@H](CC(C)C)NC(=O)[C@H](CO)NC(=O)CNC1=O` [compound 1389] ({C18 diacid-γGlu-γGlu-γGlu-γGlu}-QEHPQARKYKGAQKKGLSSGCFGLPLDRIGSLSGLGC-OH; disulfide 21-37) has a solubility (5 mM sodium acetate, 250 mM glycerol, pH 4.0, room temperature, read-out: Solubility at pH 4.0) of 8900 µM (≈ 41800 µg/mL) and a solubility [1] of 426 µM (≈ 2000 µg/mL).
